Reference: US11623924B2, “Modulators of alpha-1 antitrypsin” (Vertex Pharmaceuticals Incorporated, priority 2018, dated 2023)

molecular target: T1, NL20 human bronchial epithelial cells expressing human Z-AAT (Homo sapiens, UniProt P01009, E366K); assay: AAT Function Assay (MSD Assay NL20-SI Cell Line); assay type: cell-based; conditions: NL20 Func. (EC50), functionally active AAT (AAT-hNE complex) in supernatant of NL20 cells expressing human Z-AAT
T1 construct: expressed in transfected cells; host or cells: NL20 human bronchial epithelial cells (NL20-SI line, doxycycline added)
Method in brief: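 NL20 cells expressing Z-AAT, seeded 16,000 cells/well, received compound with doxycycline (0.1 μM final) and were incubated overnight at 37° C. Supernatants, diluted 45-fold in total, reacted with excess human neutrophil elastase; AAT-elastase complex captured on anti-AAT plates, detected with Sulfo-tagged anti-elastase by MSD electrochemiluminescence, and quantified against M-AAT standards (0.156-320 ng/mL).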

T1 sequence (P01009 25-418 E366K): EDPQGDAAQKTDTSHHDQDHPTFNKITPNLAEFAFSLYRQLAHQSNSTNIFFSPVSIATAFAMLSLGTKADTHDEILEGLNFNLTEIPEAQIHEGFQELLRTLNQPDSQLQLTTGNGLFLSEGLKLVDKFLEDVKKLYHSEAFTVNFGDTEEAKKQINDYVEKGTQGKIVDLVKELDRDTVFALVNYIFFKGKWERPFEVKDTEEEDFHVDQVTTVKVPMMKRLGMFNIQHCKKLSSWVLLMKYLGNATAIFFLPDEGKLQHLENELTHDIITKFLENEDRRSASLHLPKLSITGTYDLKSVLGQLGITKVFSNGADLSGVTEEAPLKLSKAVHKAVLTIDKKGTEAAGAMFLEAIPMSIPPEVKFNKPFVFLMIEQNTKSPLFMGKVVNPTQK

Row | Compound | EC50 [µM]
1 | CC(C)c1c(CCC(=O)O)c2nc3[nH]ncc3nc2n1-c1ccc(F)cc1 [Compound 204, 3-[10-(4-fluorophenyl)-11-isopropyl-2,4,5,8,10-pentazatricyclo[7.3.0.03,7]dodeca-1,3(7),5,8,11-pentaen-12-yl]propanoic Acid] | > 3

same assay, conditions: functionally active AAT (AAT-hNE complex) in supernatant of NL20 cells expressing human Z-AAT; read-out: NL20 Func. (EC50)

Row | Compound | EC50 [µM]
2 | CC(C)c1c(CCC(=O)N[C@@H]2C(=O)NC[C@H]2O)c2cc3[nH]ncc3cc2n1-c1ccc(F)cc1 (stereo in doubt) [Compound 211, 3-[5-(4-fluorophenyl)-6-isopropyl-1H-pyrrolo[2,3-f]indazol-7-yl]-N-[(3S,4R)-4-hydroxy-2-oxo-pyrrolidin-3-yl]propanamide] | > 3
3 | O=C(O)C1CC(Cc2c(C3CCOCC3)n(-c3ccc(F)cc3)c3cc4cn[nH]c4cc23)C1 (racemic) [Compound 116] | > 3
4 | CC1(C(=O)O)CC(c2c(C3CCOCC3)n(-c3ccc(F)c(F)c3)c3cc4cn[nH]c4cc23)C1 (single isomer, unassigned) [Compound 69] | > 3
5 | Cc1cc(-n2c(C(C)C)c(C(=O)NC3COC3)c3cc4[nH]ncc4cc32)ccc1F [Compound 7, 5-(4-fluoro-3-methyl-phenyl)-6-isopropyl-N-(oxetan-3-yl)-1H-pyrrolo[2,3-f]indazole-7-carboxamide] | > 3
6 | COC(=O)C1CC2(C1)CC(c1c(C3CCOCC3)n(-c3ccc(F)c(C)c3)c3cc4cn[nH]c4cc13)C2 (racemic) [Compound 89] | > 3
7 | N#Cc1c(C2CCOCC2)n(-c2ccc(F)cc2)c2cc3cn[nH]c3cc12 [Compound 61, 5-(4-fluorophenyl)-6-tetrahydropyran-4-yl-1H-pyrrolo[2,3-f]indazole-7-carbonitrile] | > 3
8 | CC(C)c1c(CCC(=O)O)n(-c2ccc(F)cc2)c2cc3cn[nH]c3cc12 [Compound 194, 3-[5-(4-fluorophenyl)-7-isopropyl-1H-pyrrolo[2,3-f]indazol-6-yl]propanoic Acid] | > 3
9 | C[C@]1(C(=O)O)C[C@@H](c2c(C3CCOCC3)n(-c3ccc(F)cc3)c3cc4cn[nH]c4cc32)C1 (single isomer, unassigned) [Compound 114] | > 3
10 | Cc1cc(-n2c(C(C)C)c(C#N)c3cc4[nH]ncc4cc32)ccc1F [Compound 10, 5-(4-fluoro-3-methyl-phenyl)-6-isopropyl-1H-pyrrolo[2,3-f]indazole-7-carbonitrile] | > 3
11 | O=C(O)[C@H]1C[C@@H](c2c(C3CCOCC3)n(-c3ccc(F)cc3)c3cc4cn[nH]c4cc32)C1 [Compound 112] | > 3
12 | CS(=O)(=O)c1c(C2CCOCC2)n(-c2ccc(F)cc2)c2cc3cn[nH]c3cc12 [Compound 62, 5-(4-fluorophenyl)-7-methylsulfonyl-6-tetrahydropyran-4-yl-1H-pyrrolo[2,3-f]indazole] | > 3
13 | CCNC(=O)c1c(C(C)C)n(-c2ccc(F)c(C)c2)c2cc3cn[nH]c3cc12 [Compound 6, N-ethyl-5-(4-fluoro-3-methyl-phenyl)-6-isopropyl-1H-pyrrolo[2,3-f]indazole-7-carboxamide] | > 3
14 | CC(C)c1c(C2CNC2)c2cc3[nH]ncc3cc2n1-c1ccc(F)cc1 [Compound 174, 7-(azetidin-3-yl)-5-(4-fluorophenyl)-6-isopropyl-1H-pyrrolo[2,3-f]indazole] | > 3
15 | C=Cc1c(C(C)C)n(-c2ccc(F)c(C)c2)c2cc3cn[nH]c3cc12 [Compound 12, 5-(4-fluoro-3-methyl-phenyl)-6-isopropyl-7-vinyl-1H-pyrrolo[2,3-f]indazole] | > 3
16 | Cc1cc(-n2c(C(C)C)c(C(=O)N3CCN(C)CC3)c3cc4[nH]ncc4cc32)ccc1F [Compound 5, [5-(4-fluoro-3-methyl-phenyl)-6-isopropyl-1H-pyrrolo[2,3-f]indazol-7-yl]-(4-methylpiperazin-1-yl)methanone] | > 3

Second part, the compound after the results:

Row | EC50 [µM] | Compound
17 | < 1.16 | CC(C)c1c(C2CC3(CC(C(=O)O)C3)C2)c2cc3[nH]ncc3cc2n1-c1ccc(F)cc1 (single isomer, unassigned) [Compound 36, 6-[5-(4-fluorophenyl)-6-isopropyl-1H-pyrrolo[2,3-f]indazol-7-yl]spiro[3.3]heptane-2-carboxylic acid]
18 | < 1.16 | Cn1cc(CCCc2c(C3CCOCC3)n(-c3ccc(F)cc3)c3cc4cn[nH]c4cc23)cn1 [Compound 144]
19 | > 3 | CC(C)c1c(CCC(=O)O)c2cc3cn[nH]c3cc2n1-c1ccc(F)cc1 [Compound 201, 3-[7-(4-fluorophenyl)-6-isopropyl-1H-pyrrolo[3,2-f]indazol-5-yl]propanoic Acid]
20 | 1.16 to 3 | O=C(O)[C@H]1C[C@@H](Cc2c(C3CCOCC3)n(-c3ccc(F)c(F)c3)c3cc4cn[nH]c4cc23)C1 (single isomer, unassigned) [Compound 72]
21 | > 3 | Cc1cc(-n2c(C(C)C)c(C(=O)N3CCOCC3)c3cc4[nH]ncc4cc32)ccc1F [Compound 4, [5-(4-fluoro-3-methyl-phenyl)-6-isopropyl-1H-pyrrolo[2,3-f]indazol-7-yl]-morpholino-methanone]
22 | 1.16 to 3 | [2H]C([2H])(CC(=O)O)c1c(C(C)C)n(-c2ccc(F)cc2)c2cc3cn[nH]c3cc12 [Compound 169, 3,3-dideuterio-3-[5-(4-fluorophenyl)-6-isopropyl-1H-pyrrolo[2,3-f]indazol-7-yl]propanoic Acid]
23 | < 1.16 | Cc1cc(-n2c(C(C)C)c(C3CC3C(=O)O)c3cc4[nH]ncc4cc32)ccc1F (single isomer, unassigned) [Compound 14, 2-[5-(4-fluoro-3-methyl-phenyl)-6-isopropyl-1H-pyrrolo[2,3-f]indazol-7-yl]cyclopropanecarboxylic acid]
24 | < 1.16 | Cc1cc(-n2c(C(C)C)c(CC3(C(=O)O)CC3)c3cc4[nH]ncc4cc32)ccc1F [Compound 17, 1-[[5-(4-fluoro-3-methyl-phenyl)-6-isopropyl-1H-pyrrolo[2,3-f]indazol-7-yl]methyl]cyclopropanecarboxylic Acid]
25 | > 3 | O=C(O)[C@H]1C[C@H](Cc2c(C3CCOCC3)n(-c3ccc(F)cc3)c3cc4cn[nH]c4cc23)C1 [Compound 118]
26 | < 1.16 | Cc1cc(-n2c(C3CCOCC3)c(CC3CC(C(=O)O)C3)c3cc4[nH]ncc4cc32)ccc1F (mixture of isomers) [Compound 96]
27 | < 1.16 | Cc1cc(-n2c(C(C)C)c(CC(C)C(=O)O)c3cc4[nH]ncc4cc32)ccc1F (single isomer, unassigned) [Compound 20]
28 | 1.16 to 3 | [2H]C([2H])([2H])C([2H])(c1c(CCC(=O)O)c2cc3[nH]ncc3cc2n1-c1ccc(F)cc1)C([2H])([2H])[2H] [Compound 193, 3-[5-(4-fluorophenyl)-6-[1,2,2,2-tetradeuterio-1-(trideuteriomethyl)ethyl]-1H-pyrrolo[2,3-f]indazol-7-yl]propanoic Acid]
29 | < 1.16 | Cc1cc(-n2c(C(C)C)c(C3CC3C(=O)O)c3cc4[nH]ncc4cc32)ccc1F (single isomer, unassigned) [Compound 13, 2-[5-(4-fluoro-3-methyl-phenyl)-6-isopropyl-1H-pyrrolo[2,3-f]indazol-7-yl]cyclopropanecarboxylic acid]
30 | < 1.16 | Cc1cc(-n2c(C3CCOCC3)c(C[C@H]3C[C@@H](C(=O)O)C3)c3cc4[nH]ncc4cc32)ccc1F (single isomer, unassigned) [Compound 97]
31 | 1.16 to 3 | O=C(OCc1ccccc1)N1CCC(Cc2c(C3CCOCC3)n(-c3ccc(F)cc3)c3cc4cn[nH]c4cc23)CC1 [Compound 152, Benzyl 4-[[5-(4-fluorophenyl)-6-tetrahydropyran-4-yl-1H-pyrrolo[2,3-f]indazol-7-yl]methyl]piperidine-1-carboxylate]
32 | 1.16 to 3 | CC(C)c1c(-c2ccc(Cl)cc2)c2cc3cn[nH]c3cc2n1CCC(=O)O [Compound 206, 3-[5-(4-chlorophenyl)-6-isopropyl-1H-pyrrolo[3,2-f]indazol-7-yl]propanoic Acid]
33 | 1.16 to 3 | [H][C@]1(C(=O)O)C[C@]2(C1)C[C@@]([H])(c1c(C3CCOCC3)n(-c3ccc(F)cc3)c3cc4cn[nH]c4cc31)C2 (single isomer, unassigned) [Compound 109]
34 | < 1.16 | COCC(C)(C)c1c(C2CC(C)(C(=O)O)C2)c2cc3[nH]ncc3cc2n1-c1ccc(F)cc1 (mixture of isomers) [Compound 176]
35 | 1.16 to 3 | Cc1cc(-n2c(C3CCOCC3)c(CC(C)C(=O)O)c3cc4[nH]ncc4cc32)ccc1F (racemic) [Compound 105]
36 | 1.16 to 3 | Cc1cc(-n2c(C3CCOCC3)c(C3CC4(CC(C(=O)O)C4)C3)c3cc4[nH]nc(C)c4cc32)ccc1F (single isomer, unassigned) [Compound 128, 6-[5-(4-fluoro-3-methyl-phenyl)-3-methyl-6-tetrahydropyran-4-yl-1H-pyrrolo[2,3-f]indazol-7-yl]spiro[3.3]heptane-2-carboxylic acid]
37 | < 1.16 | CC(C)c1c(CCC(=O)O)c2c(F)c3[nH]ncc3cc2n1-c1ccc(F)cc1 [Compound 53, 3-[8-fluoro-5-(4-fluorophenyl)-6-isopropyl-1H-pyrrolo[2,3-f]indazol-7-yl]propanoic Acid]
38 | < 1.16 | Cc1cc(-n2c(C3CCOCC3)c(C3CC4(CC(C(=O)O)C4)C3)c3cc4[nH]nc(C)c4cc32)ccc1F (single isomer, unassigned) [Compound 127, 6-[5-(4-fluoro-3-methyl-phenyl)-3-methyl-6-tetrahydropyran-4-yl-1H-pyrrolo[2,3-f]indazol-7-yl]spiro[3.3]heptane-2-carboxylic acid]
39 | < 1.16 | Cc1cc(-n2c(C(C)C)c(C3CC(CC(=O)O)C3)c3cc4[nH]ncc4cc32)ccc1F (mixture of isomers) [Compound 22]
